# Entries after “also recorded” stand apart in the source; their conditions may differ.
# Experiments:
# [1] = tested on: HEC-1A (human endometrial epithelial cells); assay: MTT assay in HEC-1A; type: cell-based; settings: up to 10 μM, FIG. 13A
# Experimental: (§1) This method was selected to analyze detrimental intracellular effects on mitochondria and metabolic activity. The colorimetric MTT test, based on the selective ability of viable cells to reduce MTT to purple formazan, relies on intact metabolic activity and is frequently used for cytotoxicity screening. […] The concentration of formazan was then determined spectrophotometrically in a plate reader at a wavelength of 570 nm (test) and 690 nm (reference). The spectrophotometer was calibrated to zero absorbance by using Optimem medium without cells. The percentage cell viability relative to control wells (cells with no dendrimer) was calculated by ([A]test/[A]control)T100. […]
# [2] = tested on: HEC-1A (human endometrial epithelial cells); assay: LDH assay in HEC-1A; type: cell-based
# Description: This technique (CytoTox 96® Non-Radioactive Cytotoxicity Assay) was used to test the damage in the cell membrane surface due to the presence of anionic peripheral groups of dendrimers. The lactate dehydrogenase (LDH) is an enzyme that is released into the cytoplasm due to cell lysis. The LDH assay, therefore, is a measure of membrane integrity, which is based on the oxidation of LDH to pyruvate and reduction of tetrazolium salts to formazan crystals by pyruvate.
# 1*10^5 cells/well were dispensed in 96-well plate round bottom in a volume of 100 μL of complete medium and the dendrimer was added in a volume of 100 μL, to obtain a final volume of 200 μL in the well. Controls: 1. 200 μL of complete medium without cells (background control), 2. 100 μL of cells+100 μL of complete medium, 3. 100 μL of cells+100 μL of Triton X-100 0.2% 4. 100 μL of cells+100 μL with the dendrimer to the desired concentration. Incubated in culture conditions during the first 24 h. Plate was centrifuged at 1500 rpm 10 minutes and removed 100 μL of supernatant, being careful not to take the cells. 100 μL of reaction mixture prepared at the time on the 100 μL was added of supernatant and incubated at room temperature for 30 minutes in darkness. Finally, measured at 490 nm and 690 nm reference. The cytotoxicity was obtained from the following formula: Cytotoxicity (%)=(4−2)/(3−2)*100 […]
# PBMC [3] = assay: LDH assay in PBMC; type: cell-based, human
# Description: This technique (CytoTox 96® Non-Radioactive Cytotoxicity Assay) was used to test the damage in the cell membrane surface due to the presence of anionic peripheral groups of dendrimers. The lactate dehydrogenase (LDH) is an enzyme that is released into the […] due to cell lysis. The LDH assay, therefore, is a measure of membrane integrity, which is based on the […] and reduction of tetrazolium salts to formazan crystals by […].
# 1*10^5 cells/well were dispensed in 96-well plate round bottom in a volume of 100 μL of complete medium and the dendrimer was added in a volume of 100 μL, to obtain a final volume of 200 μL in the well. Controls: 1. 200 μL of complete medium without cells (background control), 2. 100 μL of cells+100 μL of complete medium, 3. 100 μL of cells+100 μL of Triton X-100 0.2% 4. 100 μL of cells+100 μL with the dendrimer to the desired concentration. Incubated in culture conditions during the first 24 h. Plate was centrifuged at 1500 rpm 10 minutes and removed 100 μL of supernatant, being careful not to take the cells. 100 μL of reaction mixture prepared at the time on the 100 μL was added of supernatant and incubated at room temperature for 30 minutes in darkness. Finally, measured at 490 nm and 690 nm reference. The cytotoxicity was obtained from the following formula: Cytotoxicity (%)=(4−2)/(3−2)*100
# PBMC [4] = assay: MTT assay in PBMC; type: cell-based, human; settings: 10 μM
# Experimental: as §1
# [5] = tested on: HIV-1 NL4.3 (X4 tropic) and HIV-1 BaL (R5 tropic); assay: Action mechanism: virus treated with dendrimer before exposure to PBMC; type: cell-based; settings: 10 μM, 4 days of culture
# Experimental: It was used for this experiment a 96 well plate of flat bottom with Poli-L-lysine (PLL, Sigma® covering the bottom of the well. For this purpose, 50 uL of PLL were incubated at 37° C. for one hour. After washing the wells three times with PBS, 4 ng of HIV were incubated overnight at 4° C., to ensure that the virus particles were adhered to the bottom of the well. Each well was washed three times with PBS to remove HIV not adhered to the plate and then each well was treated with different dendrimer concentrations for 1 h. Afterward, it was necessary to washed the product with PBS and PBMC previously stimulated were added. The supernatant of this cell culture was recovered after 4 days and p24 antigen was quantified by ELISA to assess the amount of HIV produced by the PBMC in different treatments. As positive control of lysis of the viral particles Triton x-100 (1%) was used.
# After verifying the effectiveness of the dendrimer to block adherence and internalization of virus particles, we proceeded to try to understand the mechanism of action. To this end, we designed an experiment that consisted of exposing the viral particles to the presence of dendrimer, to then use this combination in stimulated PBMC cultures (prepared for the viral infection). […]
# [6] = tested on: HIV (X4 and R5-tropic virus); assay: Inhibition of transcytosis through HEC-1A monolayer (transwell); type: cell-based
# Experimental: To obtain a perfect monolayer of polarized epithelial cells, the HEC-1A were grown in complete medium on a permeable polycarbonate support of 0.4 μm pore (Costar, Cambridge, Mass.). Then, 2*10^5 cells by well were cultivated for 7 days, with media changes every 2-3 days. The dendrimer were added one hour prior to the infection. […] The viral concentration was quantified by ELISA.
# To reproduce in the best possible way the role that the anionic dendrimer develop on the surface of the endometrium and to study the passage of virions through the mucosal stratified vaginal epithelium, we used transwell devices that recreate the phenomenon of transcytosis (transport of macromolecules from the extracellular space to another through the cytoplasm of a cell via an endocytic vesicle) due to the possibility of forming a perfect monolayer of adherent cells on the inside and collect information from the supernatants of the apical and basolateral side of the monolayer. […]
# HIV-1 NL4.3 = assay: PBMC pre-treatment / post-treatment infection inhibition; type: cell-based
# Experimental: We used 2*10^5 stimulated PBMC cells dispensed in 200 μL of complete medium in round bottom wells of p96 plate. […] After this time, the wells were washed twice with PBS and were incubated in culture conditions. The viral concentration after 3 days was quantified by ELISA of p24.
# [7] = tested on: X4 HIV NL4.3 and R5 HIV Bal; assay: CDi, CDm and macrophages pre-treatment; type: cell-based, HIV-1; settings: pretreated 1 h, 50 ng virus
# Experimental: Once the cells were differentiated, they were washed twice with PBS and 2*10^5 CDi, 2*10^5 CDm and 10^5 macrophages were dispensed in 200 μL of complete medium in bottom p96 wells. The dendrimer were added one hour prior to the infection. After adding the viral particles (50 ng), they were incubated in culture conditions and after 3 hours the supernatant was retired and washed 4 times with PBS. The supernatant was collected after 4 days. The viral concentration was quantified by ELISA.
# [8] = tested on: TNF-alpha transcriptional activity (pTNF-luc); assay: Transfection of Jurkat cells with pTNF-luc plasmid; type: cell-based; settings: 5 and 10 micromolar, 16 hours, versus control cells without stimulating
# Experimental: Inflammation experiments: the experiments were conducted with transient transfection using plasmid indicators pTNF-luc and pNF-κB-luc containing 3 copies in tandem of site NF-κB of the promoter. The Jurkat cell line was nucleofected with the AMAXA nucleofector following the commercial house protocol “cell line nucleofector kit V” and the specific programme used in the X-005. Transfected cells were stimulated for 16 hours with the different stimuli that appear in the graphs (TNF-alpha, antibody monoclonal anti-TNF-alpha and different concentrations (5 and 10 micromolar) of the anionic sulfonate dendrimer). After different treatments, the transfected cells were collected by centrifugation and lysed with commercial tampon lysis “Dual-luciferase Assay System Kit” (Promega), according to the manufacturer's recommendations. The amount of protein in 5 μl of lysed cell was measured by the method of BSA-BCA (Pierce, Rockford, USA). Once quantified, the values of all the samples were normalized to 20 micrograms to measure the luciferase activity for about 10 seconds in a luminometer 1450 Microbeta Luminiscence Counter (Walax, Trilux). Luciferasa activity of firefly values are expressed as induction with respect to cells control. […]
# NF-kB (pNF-kB-luc) = assay: Transfection of Jurkat cells with pNF-kB-luc plasmid; type: cell-based
# Experimental: Inflammation experiments: the experiments were conducted with transient transfection using plasmid indicators pTNF-luc and pNF-κB-luc containing 3 copies in tandem of site NF-κB of the promoter. The Jurkat cell line was nucleofected with the AMAXA nucleofector following the commercial house protocol “cell line nucleofector kit V” and the specific programme used in the X-005. Transfected cells were stimulated for 16 hours with the different stimuli that appear in the graphs (TNF-alpha, antibody monoclonal anti-TNF-alpha and different concentrations (5 and 10 micromolar) of the anionic sulfonate dendrimer). […] The amount of protein in 5 μl of lysed cell was measured by the method of BSA-BCA (Pierce, Rockford, USA). Once quantified, the values of all the samples were normalized to 20 micrograms to measure the luciferase activity for about 10 seconds in a luminometer 1450 Microbeta Luminiscence Counter (Walax, Trilux). Luciferasa activity of firefly values are expressed as induction with respect to cells control.
# Jurkat cells were transfected with the pNF-kB-luc plasmid, they were cultivated in the presence of sulfonate (10 micromolar) for 16 hours and the luciferasa activity was measured. […] The results presented are expressed as standardized induction index with the values of cell controls without treatment control and it is a representative of three independent experiments.
# PBMC [9] = assay: Lymphoproliferative assay (BrdU incorporation); parameters: Mitogenic effect of dendrimer alone (BrdU incorporation): dose or concentration left out as unconfirmed
compound,measurement,setting,value
ck-G1-[Si(CH2)4(N3C2H)CH2N(CH2CH2COONa)2]8 [G2CKCOO16],Cell viability (MTT toxicity curve),[1],good cell viability
dextran,LDH in the supernatant with regard to the control,[2]; 24 hours of treatment,~10%
G1-[Si(CH2)3N(CH2CH2SO3Na)2]8 [G2SF16],Damage to the cell membrane (LDH),PBMC [3],low damage
same,Concentration from which toxicity was presented (LDH),PBMC [3]; 24 hours,≥ 10 µM
same,Mitochondrial activity (MTT),PBMC [4],optimal mitochondrial activity
same,HIV (p24) in supernatant of PBMC after virus treated with dendrimer,[5],low prevalence of HIV
same,Reduction of passage of viral particles through the monolayer,"[6]; 5 μM, both X4 and R5 virus, basolateral supernatant at 24 and 48 hours",40%
same,"Inhibition of infection, post-treatment","HIV-1 NL4.3; PBMC infected first, then dendrimer",60%
same,"Inhibition of infection, pre-treatment",HIV-1 NL4.3; PBMC treated with dendrimer prior to infection by HIV-1 NL4.3,80%
same,Decrease of p24 antigen in immature dendritic cells,[7],significant
same,p24 in the supernatant of macrophages,[7],clear decrease of p24
same,Promoter activity of the pTNF-luc plasmid,[8],two to three times lower
same,Activity of the pNF-kB-luc plasmid,"NF-kB (pNF-kB-luc); 10 micromolar, 16 hours",decrease in the activity of the pNF-kB-luc plasmid; also recorded: decreases the transcriptional activity of NF-kappa
same,Induction of NF-kB-luc by TNF-alpha,NF-kB (pNF-kB-luc); sulfonate + TNF-alpha,reversal of the induction of NF-kB-luc
same,"Effect on mitogenic effect of PHA, treatment at the same time as PHA","PBMC [9]; PBMC, 4 days",slightly decreases the mitogenic effect
same,Mitogenic effect of dendrimer alone (BrdU incorporation),"PBMC [9]; PBMC, 4 days",no mitogenic effect
same,BrdU incorporation in PBMC previously stimulated with PHA,"PBMC [9]; PHA for 3 days, then 4 days of treatment, FIG. 4B",decrease in BrdU incorporation; also recorded: inhibits the mitogenic effect of PHA
"Cc1ccc(C(=O)Nc2ccc(S(=O)(=O)O)c3cc(S(=O)(=O)O)cc(S(=O)(=O)O)c23)cc1NC(=O)c1cccc(NC(=O)Nc2cccc(C(=O)Nc3cc(C(=O)Nc4ccc(S(=O)(=O)O)c5cc(S(=O)(=O)O)cc(S(=O)(=O)O)c45)ccc3C)c2)c1 [Suramin, reference compound]",LDH release,[2]; after an hour of contact,did not show toxicity
same,Reduction of passage of viral particles through the monolayer,"[6]; 70 ng Bal virus, 1 h pretreatment, basolateral supernatant after 48 h, FIG. 20",lacks the inhibitory effect
same,Inhibitory effect on passage of viral particles through the monolayer,"[6]; R5-tropic virus, positive control",no inhibitory effect
same,Decrease of p24 antigen in immature dendritic cells,[7],significant
ck-G1-[Si(CH2)4(N3C2H)CH2N(CH2PO(OMe)2)2]8 [G2CKP32],Cell viability (MTT toxicity curve),[1],good cell viability
mannan [reference compound],Decrease of p24 antigen in immature dendritic cells,[7],significant
